Data set [1] is described as follows: Stability of PA-96 in whole mouse blood. The data set is classed as in vitro ADME, mice. The following applies: spike 50 ng/mL, 5-240 min. The source says: A crucial factor to consider is the stability of the compound in biological matrices. Both whole blood and plasma may contain enzymes able to metabolise the substance, and the metabolism rate can be relatively high. This can result in a rapid decrease in the substance concentration and an incorrect calibration curve. Additionally, if blood samples from experimental animals are dried as spots, metabolism during drying may lead to incorrect analyte concentrations. Considering these factors, we investigated the stability of the agent PA-96 in whole mouse blood.
To study the influence of the enzymes on the PA-96 stability in whole blood, mice blood spikes containing PA-96 in the concentration of 50 ng/mL were prepared. Aliquots of the spike were precipitated according to the protocol described above. Sampling was carried out at the following timepoints: 5, 10, 20, 30, 40, 50, 120, 180, and 240 min. The long-term stability of the samples was studied by the comparison of freshly prepared samples and samples prepared and kept in different conditions for 7 days. The storage conditions were the following: room temperature (+23 °C), household fridge (+4 °C), and Kelvinator (−70 °C). The acceptance criterion was a CV ≤ 15% for every day and any storing condition.

Data set [2] deals with MPTP-, haloperidol-, and rotenone-induced models. The following applies: cited from earlier work.
Data set [3] in a line: Pharmacokinetics of PA-96 after intravenous (i.v.) injection to mice. The data set is classed as in vivo, CD-1 mice. To be noted: for AUC(0-t) / Cmax / Tmax / half-life: both sexes, CD-1, mouse, whole blood, iv. The procedure: To evaluate the bioavailability of the agent PA-96, a suspension of the compound with Tween-80 was administered intravenously at doses of 1 and 10 mg/kg. After administration, blood in an amount of approximately 10 µL was collected from the tail vein of each animal at 5, 10, 15, 30, 45, 60, 90, 120, and 150 min, and samples were prepared following the PPT protocol.
Therefore, it was necessary to widen the operating concentration range of the calibration curve. To quantify PA-96 in these blood samples, we prepared and analysed spikes containing the agent in concentrations of 530, 1325, 2650, 3530, 8800, 10,600, and 21,200 ng/mL, which were used to construct a high-concentration calibration curve. In addition to these calibrators, quality control samples were prepared containing PA-96 at the concentrations of 1760, 5300, and 17,100 ng/mL (QCL, QCM, and QCH, respectively). […] As the objective of building this calibration curve was to evaluate the concentration of PA-96 only in several samples, the full validation of this expansion of the developed bioanalytical method was not performed.
The LC–MS/MS analysis was carried out using a Shimadzu LC-20AD Prominence chromatograph equipped with a cooling autosampler, binary gradient pump, and column oven (Shimadzu, Japan) coupled with a 3200 QTRAP mass spectrometer (AB SCIEX, Framingham, MA, USA) equipped with an electrospray ionisation source (ESI). The mass spectrometer worked in positive mode and multiple reaction monitoring (MRM) detection mode for quantitation. Analyst 1.6.2 software (AB SCIEX, Framingham, MA, USA) was used for instrument control and data acquisition, and MultiQuant 2.1 software (AB SCIEX, Framingham, MA, USA) was used for quantitation. To calculate the main pharmacokinetic parameters, the Microsoft Excel plugin PKSolver was used.
CD-1 mice (male and female) were obtained from the SPF vivarium of the Institute of Cytology and Genetics, Russia. The mice weighed 25–30 g at the beginning of the experiment.
In order to investigate the bioavailability and dose proportionality, PA-96 was administered p.o. at the dosages of 1, 5, and 10 mg/kg and intravenously (i.v.) at the dosages of 1 and 10 mg/kg. […] The blood was drawn from the tail vein at the following timepoints: 3, 5, 10, 15, 30, 45, 60, 90, 120, and 150 min. The samples were prepared and analysed.

The mark [4] stands for this setting: animal MPTP and haloperidol models of PD.

On to `C=C(C)[C@@H]1CC=C(C)[C@@H](Sc2nc[nH]n2)[C@@H]1O` [PA-96], for which the “PA-96 concentration in whole mouse blood during stability investigation” value in data set [1] is “consistent within the accuracy of analysis error”. Also, in data set [2] (MPTP and haloperidol-based mice models of Parkinson's disease), the “Effect on motor deficits” value was “alleviated motor deficits”. In addition, the “Density of tyrosine hydroxylase positive neurons and dopamine concentration in the midbrain” value in data set [2] (MPTP-damaged brain) was “increased”. Besides, in data set [2] (setting [4]), the “Antiparkinsonian activity relative to Prottremine” value is listed as “more active than Prottremine” and the “Dose at which antiparkinsonian effect was displayed” value is given as 1 mg/kg. Moreover, in data set [3] (1 mg/kg, mean ± SEM, n = 6), the AUC(0-t) was found to be 85 ng·h/mL, the highest level (Cmax) was 390 ng/mL, the Tmax is 3.3 min and the half-life came to 37 ± 10 min. In data set [3] (10 mg/kg, mean ± SEM, n = 2), this compound showed an area under the curve AUC(0-t) of 2170 ng·h/mL, a peak concentration (Cmax) greater than 7700 ng/mL and a half-life of 26.1 ± 2.9 min. In addition, in data set [3] (10 mg/kg, n = 2), the time to peak (Tmax) was 3 min. Further, in data set [3] (i.v. 1 and 10 mg/kg), the “Concentration level 1 h after administration” value was “several nanograms per mL” and the “Time in which concentration decreases twofold after injection” value was 10 to 15 min. In data set [3] (i.v. 1 vs 10 mg/kg), the “Increase of AUC when the dose was increased tenfold” value is recorded as “approximately 25 times” and the “Increase of Cmax when the dose was increased tenfold” value was “twentyfold”.
